Experiments:
CCRF-CEM = experiment: Cytotoxicity (XTT) on CCRF-CEM cells; assay type: cell-based, human; conditions: 72 h
Method: (§1) The cytotoxicity of the substances was measured on four tumour cell lines: CCRF-CEM, HepG2, Hela, HL-60. All cell lines were purchased from ATCC (Manassas, VA, USA). Cells were cultured in RPMI-1640 or DMEM medium containing 10% (wt/wt) FBS and 1% (wt/wt) GlutaMax. Cells were distributed at 2,000-10,000 per well of a 384-well plate (Thermo Fisher Scientific, Waltham, USA) and incubated overnight. After 24 hours, test substance solutions (10 or 100 μmol·l^−1) were added to the wells and the cells were incubated with the test substances at 37° C. and 5% (vol./vol.) CO2 for another 72 h. XTT dye (XTT cell proliferation kit II, Roche Diagnostics GmbH, Mannheim, Germany) was added to the wells according to the manufacturer's protocol. After one hour of incubation with the dye, the absorbance at 495 nm was measured and the signal was compared with the control (100% viability=cells without test substance).

HepG2 = experiment: Cytotoxicity (XTT) on HepG2 cells; assay type: cell-based, human; conditions: 72 h
Method: as §1

PREP = molecular target: T1, PREP (Homo sapiens, UniProt P48147); experiment: Inhibitory activity against human recombinant PREP (IC50); assay type: biochemical; conditions: selected substances
T1 construct: purchased R&D Systems 4308-SE-010
T1 sequence (P48147 1-710): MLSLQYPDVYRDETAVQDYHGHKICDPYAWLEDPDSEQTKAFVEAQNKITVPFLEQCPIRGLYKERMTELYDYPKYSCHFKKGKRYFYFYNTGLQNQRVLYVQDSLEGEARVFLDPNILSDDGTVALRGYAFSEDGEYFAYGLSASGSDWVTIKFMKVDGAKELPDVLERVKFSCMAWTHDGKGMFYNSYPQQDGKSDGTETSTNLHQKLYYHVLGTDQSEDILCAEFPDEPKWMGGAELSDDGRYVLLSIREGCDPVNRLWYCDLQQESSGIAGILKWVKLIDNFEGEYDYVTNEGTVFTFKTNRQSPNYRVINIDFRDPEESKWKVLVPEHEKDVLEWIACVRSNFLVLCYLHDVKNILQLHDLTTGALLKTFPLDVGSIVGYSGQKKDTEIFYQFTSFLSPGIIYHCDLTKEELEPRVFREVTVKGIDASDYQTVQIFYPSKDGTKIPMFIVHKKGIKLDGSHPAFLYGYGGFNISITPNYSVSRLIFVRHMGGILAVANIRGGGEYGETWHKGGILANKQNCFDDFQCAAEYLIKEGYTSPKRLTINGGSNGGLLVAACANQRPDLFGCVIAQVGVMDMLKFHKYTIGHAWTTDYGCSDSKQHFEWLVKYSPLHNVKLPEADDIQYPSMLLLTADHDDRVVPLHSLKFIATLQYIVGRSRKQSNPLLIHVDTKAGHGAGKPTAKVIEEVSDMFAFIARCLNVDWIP
Method: Data were analysed by nonlinear regression with GraphPrism (version 8.3.1). The measurement results are given as values of the mean inhibitory concentration IC50 and its linearized form via the negative decimal logarithm of pIC50.

HL-60 = experiment: Cytotoxicity (XTT) on HL-60 cells; assay type: cell-based, human; conditions: 72 h
Method: as §1

Hela = experiment: Cytotoxicity (XTT) on Hela cells; assay type: cell-based, human; conditions: 72 h
Method: as §1

[1] = Stability in murine microsomes; assay type: in vitro ADME; conditions: for Stability in murine microsomes: murine microsomes 0.5 mg/ml, 5 μmol·l^−1 test substance, NADPH
Method: The incubation of 37.5 μl of the mixture was terminated by the addition of 150 μl of acetonitrile containing caffeine as an internal standard, cooled to 0° C. The mixture was vortexed (5 min) and centrifuged (20500 g; 10 min). The supernatant was transferred to a vial, and 1 μl of the mixture was used for LC-MS analysis. […] Results are presented as the percentage of test substance versus control (aliquot taken at time 0).

[2] = Stability in human plasma; assay type: in vitro ADME; conditions: 37° C., up to 120 minutes
Method: (§2) An aliquot of plasma was extracted with 120 μl of methanol containing caffeine as an internal standard. The solution was vortexed (5 min) and centrifuged (20500 g; 10 min), the supernatant was transferred to a vial, and 1 μl of the mixture was used for LC-MS analysis. […] Results are presented as the percentage of test substance versus control (aliquot taken at time 0).

[3] = Stability in murine plasma; assay type: in vitro ADME; conditions: 37° C.; for Stability in murine plasma: up to 120 minutes
Method: as §2

Row | SMILES | Cell viability CEM 10 μM (CCRF-CEM) | Cell viability CEM 100 μM (CCRF-CEM) | Cell viability HepG2 10 μM (HepG2) | Cell viability HepG2 100 μM (HepG2) | IC50 (PREP) | Cell viability HL60 10 μM (HL-60) | Cell viability HL60 100 μM (HL-60) | Cell viability HeLa S3 10 μM (Hela) | Cell viability HeLa S3 100 μM (Hela) | Stability in murine microsomes [1] | Stability in human plasma [2] | Stability in murine plasma [3] | substance degraded within 20 minutes ([1]; murine microsomes, 20 minutes) | substance degraded within 20 minutes ([3]; 20 minutes)
1 | COC(=O)[C@H](CCCCNC(=O)OCc1ccccc1)NC(=O)CNC(=O)C(=O)[C@@H]1CCCN1C(=O)CNC(=O)c1ccnc2ccccc12 [Compound 5i] | 107 % vs. control | 107 % vs. control | 89 % vs. control | 101 % vs. control | 260 pM | 104 % vs. control | 101 % vs. control | 94 % vs. control | 98 % vs. control |  |  |  |  | 
2 | O=C(NCc1ccccc1)C(=O)[C@@H]1CCCN1C(=O)CNC(=O)c1ccnc2ccccc12 [Compound 3a, (S)—N-(2-(2-(2-(Benzylamino)-2-oxoacetyl)pyrrolidin-1-yl)-2-oxoethyl)quinoline-4-carboxamide] | 105 % vs. control | 94 % vs. control | 103 % vs. control | 107 % vs. control |  | 94 % vs. control | 106 % vs. control | 119 % vs. control | 96 % vs. control | stable | stable | stable |  | 
3 | CC(C)NC(=O)CNC(=O)C(=O)[C@@H]1CCCN1C(=O)CNC(=O)c1ccnc2ccccc12 [Compound 5c, (S)—N-(2-(2-(2-((2-(Isopropylamino)-2-oxoethyl)amino)-2-oxoacetyl)pyrrolidin-1-yl)-2-oxoethyl)quinoline-4-carboxamide] | 113 % vs. control | 108 % vs. control | 96 % vs. control | 108 % vs. control |  | 86 % vs. control | 89 % vs. control | 119 % vs. control | 99 % vs. control |  |  |  |  | 
4 | O=C(NC1CC1)C(=O)[C@@H]1CCCN1C(=O)CNC(=O)c1ccnc2ccccc12 [Compound 3h, (S)—N-(2-(2-(2-(Cyclopropylamino)-2-oxoacetyl)pyrrolidin-1-yl)-2-oxoethyl)quinoline-4-carboxamide] | 94 % vs. control | 115 % vs. control | 88 % vs. control | 108 % vs. control |  | 110 % vs. control | 95 % vs. control | 89 % vs. control | 103 % vs. control |  |  |  |  | 
5 | CN(C)C(=O)CNC(=O)C(=O)[C@@H]1CCCN1C(=O)CNC(=O)c1ccnc2ccccc12 [Compound 5a, (S)—N-(2-(2-(2-((2-(Dimethylamino)-2-oxoethyl)amino)-2-oxoacetyl)pyrrolidin-1-yl)-2-oxoethyl)quinoline-4-carboxamide] | 104 % vs. control | 100 % vs. control | 91 % vs. control | 104 % vs. control |  | 105 % vs. control | 76 % vs. control | 92 % vs. control | 102 % vs. control |  |  |  |  | 
6 | COC(=O)c1ccc(NC(=O)C(=O)[C@@H]2CCCN2C(=O)CNC(=O)c2ccnc3ccccc23)cc1 [Compound 3g, Methyl (S)-4-(2-oxo-2-(1-((quinoline-4-carbonyl)glycyl)pyrrolidin-2-yl)acetamido)benzoate] | 106 % vs. control | 73 % vs. control | 93 % vs. control | 63 % vs. control |  | 100 % vs. control | 103 % vs. control | 98 % vs. control | 89 % vs. control |  |  |  |  | 
7 | COc1ccc(NC(=O)C(=O)[C@@H]2CCCN2C(=O)CNC(=O)c2ccnc3ccccc23)cc1 [Compound 3f, (S)—N-(2-(2-(2-((4-Methoxyphenyl)amino)-2-oxoacetyl)pyrrolidin-1-yl)-2-oxoethyl)quinoline-4-carboxamide] | 92 % vs. control | 84 % vs. control | 95 % vs. control | 82 % vs. control |  | 110 % vs. control | 108 % vs. control | 103 % vs. control | 94 % vs. control |  |  |  |  | 
8 | COC(=O)[C@H](CC(C)C)NC(=O)CNC(=O)C(=O)[C@@H]1CCCN1C(=O)CNC(=O)c1ccnc2ccccc12 [Compound 5e, Methyl (2-oxo-2-((S)-1-((quinoline-4-carbonyl)glycyl)pyrrolidin-2-yl)acetyl)glycyl-L-leucinate] | 96 % vs. control | 104 % vs. control | 75 % vs. control | 110 % vs. control |  | 112 % vs. control | 83 % vs. control | 99 % vs. control | 106 % vs. control |  |  |  |  | 
9 | COC(=O)[C@H](CCC(=O)OCc1ccccc1)NC(=O)CNC(=O)C(=O)[C@@H]1CCCN1C(=O)CNC(=O)c1ccnc2ccccc12 [Compound 5h, 5-Benzyl 1-methyl (2-oxo-2-((S)-1-((quinoline-4-carbonyl)glycyl)pyrrolidin-2-yl)acetyl)glycyl-L-glutamate] | 114 % vs. control | 103 % vs. control | 112 % vs. control | 105 % vs. control |  | 109 % vs. control | 106 % vs. control | 116 % vs. control | 93 % vs. control | unstable | stable | degrade immediately | 100% | 100%
10 | O=C(NCCc1ccccc1)C(=O)[C@@H]1CCCN1C(=O)CNC(=O)c1ccnc2ccccc12 [Compound 3d, (S)—N-(2-Oxo-2-(2-(2-oxo-2-(phenethylamino)acetyl)pyrrolidin-1-yl)ethyl)quinoline-4-carboxamide] | 105 % vs. control | 85 % vs. control | 88 % vs. control | 89 % vs. control |  | 110 % vs. control | 107 % vs. control | 86 % vs. control | 81 % vs. control |  |  |  |  | 

From US12371416B2, “Compounds for inhibition of fibroblast activation protein” (USTAV ORGANICKE CHEMIE A BIOCHEMIE AV CR, V. V. I., priority 2020, dated 2025)
